Measurements as given in EP0009655A1, “6-Amino substituted N-pyrrolyl-3-pyridazine amines, their preparation, and pharmaceutically antihypertensive compositions containing them” (priority 1978, dated 1980).

Tests used:
[1] = test system: renal hypertensive dogs; assay: Antihypertensive activity in conscious renal hypertensive dogs (systolic arterial blood pressure, indirect method on the tail); format: in vivo; settings: for maximum systolic blood pressure drop / time of maximum systolic blood pressure drop / blood pressure drop after seven hours: dose of 2 mg/kg; for blood pressure drop after seven hours: seven hours after administration
Experimental: The antihypertensive activity of the compounds of the invention was shown in representative tests on spontaneous hypertensive rats and in renal hypertensive dogs. In representative experiments with renal hypertensive dogs, effective amounts(1 to 4 mg/kg) of compounds of examples 3, 4, 5, 6, 8, 13, 14 and 15 were administered p.o. to the conscious hypertensive animals. The systolic arterial blood pressure was measured by the indirect method on the tail before and 1, 3, 5 and 7 hours after treatment.
The drop of the systolic blood pressure ranged between 20 and 70 mm Hg, depending on the specific compound tested and on the time at which the blood pressure was observed. In general the antihypertensive effect started about 3 hours after treatment and the maximum effect was still persistent 7 hours after treatment.

[2] = test system: spontaneous hypertensive rats (MHR: Milano hypertensive rats); assay: Antihypertensive activity in spontaneous hypertensive rats (systolic blood pressure); format: in vivo; settings: dose of 5 mg/kg
[3] = Acute toxicity, LD50 p.o.; settings: mouse, in vivo, po

Cc1ccc(C)n1Nc1ccc(N2CCOCC2)nn1 [Example 3, N-(2,5-Dimethyl-1H-pyrrol-1-yl)-6-morpholino-3-pyridazineamine]
drop of the systolic blood pressure ([1]; 1 mg/kg p.o.): 50 mm Hg
drop of the systolic blood pressure ([1]; 4 mg/kg p.o.): 70 mm Hg
maximum systolic blood pressure drop [1]: 52 mm Hg
time of maximum systolic blood pressure drop [1]: about three
blood pressure drop after seven hours [1]: 48 mm Hg
blood pressure drop [2]: 38 mm Hg
LD50 [3]: ~800 mg/kg

NNc1nncc2ccccc12 [hydralazine, 1-hydrazinophthalazine, reference compound]
maximum systolic blood pressure drop [1]: 41 mm Hg
time of maximum systolic blood pressure drop [1]: about one
blood pressure drop after seven hours [1]: 29 mm Hg
